Experimental data reported in EP1069130A1, “Moenomycin A Derivatives, their preparation, and use as antibacterial products” (HOECHST MARION ROUSSEL, priority 1999, dated 2001).

System: S. pyogenes A561
Assay: Method of dilutions in liquid medium (minimum inhibiting concentration)
Type: cell-based
Conditions: liquid nutritive medium, incubation twenty-four hours at 37° C, growth inhibition read by transillumination; for MIC: Streptococcus pyogenes, 24 h, read-out: minimum inhibiting concentrations (M.I.C.)
Procedure: Method of dilutions in liquid medium.
A series of tubes were prepared in which the same amount of sterile nutritive medium was distributed and increasing amounts of the product to be studied was distributed in each tube. Then, each tube was seeded with a bacterial strain and after incubationg for twenty-four hours in an oven at 37° C, the inhibition of growth was determined by transillumination which allowed the minimum inhibiting concentrations (M.I.C.) to be evaluated.
Products were tested on many strains inclusing : • S. aureus SG511 • S. aureus SG511 (+10 % serum) • S. aureus Exp54146 • S. pyogenes A561 • E. faecium M78L

Compound	MIC [µg/mL]	minimum inhibiting concentrations (M.I.C.)
CCCCCCCCCCCCc1ccc(NCCO[C@H](COP(=O)(O)O[C@H]2O[C@H](C(N)=O)[C@@](C)(O)[C@H](OC(N)=O)[C@H]2O[C@@H]2O[C@H](CO[C@@H]3O[C@H](CO)[C@@H](O)[C@H](O)[C@H]3O)[C@@H](O[C@@H]3O[C@H](C)[C@@H](O[C@@H]4O[C@H](C(N)=O)[C@H](O)[C@H](O)[C@H]4O)[C@H](O)[C@H]3NC(C)=O)[C@H](O)[C@H]2NC(C)=O)C(=O)O)cc1 [Example 5, 3-carbamate 1-[(2R)-2-carboxy-2-[[(4-dodecylphenyl))amino]ethoxy]ethyl hydrogen phosphate] 0-β-D-glucopyranosyl-(1→6)-O-[O-(β-D-galactopyranuronamidosyi)-(1→4)-2-(acetylamino)-2,6-dideoxy-β-D-glucopyranosyl-(1→4]-O-2-(acetylamino)-2-deoxy-.beat.-D-glucopyranosyl-(1→2)-4-C-methyl-α-D-Glucopyranuronamide]	≤ 1.2	–
C=CC(CCCCCCCCC)C(O)CO[C@H](COP(=O)(O)O[C@H]1O[C@H](C(N)=O)[C@@](C)(O)[C@H](OC(N)=O)[C@H]1O[C@@H]1O[C@H](CO[C@@H]2O[C@H](CO)[C@@H](O)[C@H](O)[C@H]2O)[C@@H](O[C@@H]2O[C@H](C)[C@@H](O[C@@H]3O[C@H](C(N)=O)[C@H](O)[C@H](O)[C@H]3O)[C@H](O)[C@H]2NC(C)=O)[C@H](O)[C@H]1NC(C)=O)C(=O)O (stereo partly drawn) [Example 6]	≤ 1.2	–
CC(=O)NC1C(OC2C(COC3OC(CO)C(O)C(O)C3O)OC(OC3C(OP(=O)(O)OCC(OCCNCC=C(C)CCCC(C)CCCC(C)CCCC(C)C)C(=O)O)OC(C(N)=O)C(C)(O)C3OC(N)=O)C(NC(C)=O)C2O)OC(C)C(OC2OC(C(N)=O)C(O)C(O)C2O)C1O [Example 4, 3-carbamate 1-[(2R)-2-carboxy-2-[[(3,7,11,15-tetramethyl-2-hexadecenyl)amino]ethoxy]ethyl hydrogen phosphate] 0-β-D-glucopyranosyl-(1→6)-O-[O-(β-D-galactopyranuronamidosyl)-(1→4)-2-(acetylamino)-2,6-dideoxy-β-D-glucopyranosyl-(1→4]-O-2-(acetylamino)-2-deoxy-.beat.-D-glucopyranosyl-(1→2)-4-C-methyl-α-D-Glucopyranuronamide]	–	≤ 1,2 microgramme/ml
